Measurements published in PMC7473865, “Repertoire-scale determination of class II MHC peptide binding via yeast display improves antigen prediction” (Nature Communications, 2020).
Ends that are not written are not given here. Peptide text beside a SMILES is read from it.

Each compound was assayed against T1, recombinant HLA-DR401 (HLA-DRA1*01:01, HLA-DRB1*04:01) (Homo sapiens, UniProt P01903+P01911, A100K/A169T/F76Y/I96L/K127E/L162R/M171V/N62H/P40V/Q125Y/R42H/S133A/S149N/S66Y/V115G/V209L/W38E) (assay: biochemical). Settings: not given.
T1 construct: poly-histidine (C); made in house; host or cells: High Five (Hi5) insect cells, baculovirus (pAcGP67a)
Type: binding

Compound	IC50 [nM]
CC(C)C[C@H](NC(=O)[C@H](C)NC(=O)[C@H](C)N)C(=O)N[C@@H](CC(N)=O)C(=O)N[C@H](C(=O)N[C@@H](CCC(=O)O)C(=O)N[C@@H](CCCNC(=N)N)C(=O)N[C@H](C(=O)N[C@@H](CS)C(=O)N[C@@H](Cc1c[nH]cn1)C(=O)N[C@@H](CS)C(=O)N[C@@H](Cc1c[nH]c2ccccc12)C(=O)N[C@@H](CCC(=O)O)C(=O)N[C@@H](CCC(=O)O)C(=O)NCC(=O)O)[C@@H](C)O)C(C)C (H-AALNVERTCHCWEEG-OH)	33.4
CC(C)C[C@H](NC(=O)[C@H](C)NC(=O)[C@H](C)N)C(=O)N[C@@H](CCCNC(=N)N)C(=O)N[C@@H](CCC(=O)O)C(=O)N[C@@H](CCC(=O)O)C(=O)N[C@@H](Cc1c[nH]cn1)C(=O)N[C@H](C(=O)N[C@@H](CS)C(=O)N[C@@H](CCCCN)C(=O)N[C@@H](CS)C(=O)N[C@@H](Cc1c[nH]c2ccccc12)C(=O)N[C@@H](CCC(=O)O)C(=O)N[C@@H](CCC(=O)O)C(=O)NCC(=O)O)[C@@H](C)O (H-AALREEHTCKCWEEG-OH)	36.9
CC(C)C[C@H](NC(=O)[C@H](C)NC(=O)[C@H](C)N)C(=O)N[C@@H](CO)C(=O)N[C@@H](CC(C)C)C(=O)N[C@@H](CCC(=O)O)C(=O)N[C@@H](CCCNC(=N)N)C(=O)N[C@@H](CO)C(=O)N[C@@H](CS)C(=O)N[C@@H](CCCCN)C(=O)N[C@@H](CS)C(=O)N[C@@H](Cc1c[nH]c2ccccc12)C(=O)N[C@@H](CCC(=O)O)C(=O)N[C@@H](CCC(=O)O)C(=O)NCC(=O)O (H-AALSLERSCKCWEEG-OH)	24.9
CC(C)C[C@H](NC(=O)[C@H](C)NC(=O)[C@H](C)N)C(=O)N[C@H](C(=O)N[C@@H](CC(=O)O)C(=O)N[C@@H](CC(=O)O)C(=O)N1CCC[C@H]1C(=O)N[C@H](C(=O)N[C@@H](CS)C(=O)N[C@@H](CCCNC(=N)N)C(=O)N[C@@H](CS)C(=O)N[C@@H](Cc1c[nH]c2ccccc12)C(=O)N[C@@H](CCC(=O)O)C(=O)N[C@@H](CCC(=O)O)C(=O)NCC(=O)O)[C@@H](C)O)C(C)C (H-AALVDDPTCRCWEEG-OH)	29.3
AAANMDTSLPAWEEG	180
AAERKMSVLSAWEEG	817
AAGVIDPTMLGWEEG	29.3
AAVADDFSCRGWEEG	47
AAWDPDKTVYGWEEG	43.9
AAWDPERTCRAWEEG	31.8
AAWERENDMLGWEEG	15.2
AAWESSTDLVGWEEG	11.9
AAWHGEGSQIGWEEG	17.5
AAWHNDPACKGWEEG	40.7
AAWVPCGDMVSWEEG	26.5
AAWVVEHSEVGWEEG	19.4
AGEYRNDPNNLAYNG	26.5
ASKMRMATPLLMQAG	5170

Same assay, conditions: HLA-DR401; fluorescence polarization competition; Fig3B; read-out: Measured IC50

Compound	IC50 [nM]
VSSFQDILLRMSKMQ	> 50000

Same assay, conditions: SuppFig6C; fluorescence polarization competition, HLA-DR401; read-out: Measured IC50

Compound	IC50 [nM]
AAEFRNEDGPLGEPG	79.9
AAGFKGEQGPKGYPG	115
AGGFKGEQGPKGYNG	134

Same assay, conditions: estimated from two-point fluorescence polarization competition assay binding plots, HLA-DR401, N = 3 technical replicates per condition; read-out: IC50 (estimated)

Compound	IC50 [nM]
CC(C)C[C@H](NC(=O)CNC(=O)[C@H](CCCNC(=N)N)NC(=O)[C@H](CCC(=O)O)NC(=O)[C@H](CC(C)C)NC(=O)[C@@H](NC(=O)[C@H](Cc1c[nH]c2ccccc12)NC(=O)[C@H](C)NC(=O)[C@H](C)N)C(C)C)C(=O)N[C@@H](CS)C(=O)N[C@@H](CS)C(=O)N[C@@H](Cc1c[nH]c2ccccc12)C(=O)N[C@@H](CCC(=O)O)C(=O)N[C@@H](CCC(=O)O)C(=O)NCC(=O)O (H-AAWVLERGLCCWEEG-OH)	34
AAFLGEWSLLSWEEG	< 10
AALGLDLRAYVWEEG	7000
AARYATSKSKGWEEG	9520
AASFLSDSVMGWEEG	< 10
AAVNDQLTVNSWEEG	4500
AAWVRVVPMRAWEEG	< 10
AAYSVEPCYRMWEEG	37

Same assay, conditions: fluorescence polarization competition; […]; competitor 20 µM to 1.28 nM in five-fold dilutions; n = 3 replicates; read-out: Measured IC50

Compound	IC50 [nM]
YWKQWLSLRNPILVF	2510

Same assay, conditions: fluorescence polarization peptide competition, HLA-DR401; sheet Fig7; read-out: Measured IC50

Compound	IC50 [nM]
CC(C)C[C@H](NC(=O)[C@H](CCC(=O)O)NC(=O)[C@H](CC(N)=O)NC(=O)[C@H](CC(C)C)NC(=O)[C@H](CCC(N)=O)NC(=O)[C@@H](NC(=O)[C@H](CO)NC(=O)[C@H](CO)NC(=O)[C@H](CS)NC(=O)[C@H](CO)NC(=O)[C@H](CC(C)C)NC(=O)[C@H](CCCNC(=N)N)NC(=O)[C@H](Cc1ccccc1)NC(=O)[C@H](CC(C)C)NC(=O)[C@H](CCC(N)=O)NC(=O)[C@@H]1CCCN1C(=O)[C@H](CC(C)C)NC(=O)[C@H](CC(=O)O)NC(=O)[C@H](CS)NC(=O)[C@@H](N)Cc1ccc(O)cc1)[C@@H](C)O)C(=O)O (H-YCDLPQLFRLSCSSTQLNEL-OH)	39.3
AAGFPGEQGPKGEPG	> 50000
ASDSSYRNECPMAEKEDTQM	47.4
ESSISDKNYWKTVSNAFSVI	24.7
EVKYCTFSKDRSKPIPGMTL	> 50000
FVGNIAEDLCLDITKLSARG	86
LLPVKQSVVPLAKGTLITHC	307
MKRRPVWTDINPKAVTNDEL	21
PIPVIFHRIATELRKTNDIN	698
PIPVIFHRIATELSKTNDIN	42.1
RKDLIVMLMDTDVNKQDKQK	3170
VYGWATLVSERSKNGMQRIL	245
VYGWATLVSERSNNGMQRIL	94
WRAPSYILSPELTQRLFSAA	248
YSIEVLLVLDDSVVRFHGKE	> 50000
YVGDMLAWLHQSTASEKEHL	406

Same assay, conditions: read-out: Measured IC50

Compound	IC50 [nM]
CSCC[C@H](NC(=O)[C@H](CO)NC(=O)[C@@H](NC(=O)[C@H](Cc1ccccc1)NC(=O)[C@H](CC(N)=O)NC(=O)[C@@H](NC(=O)[C@@H](N)C(C)C)C(C)C)C(C)C)C(=O)N[C@@H](CCC(=O)O)C(=O)N[C@@H](Cc1ccccc1)C(=O)N[C@@H](CO)C(=O)N[C@@H](CC(C)C)C(=O)N[C@H](C(=O)N[C@@H](CC(=O)O)C(=O)N1CCC[C@H]1C(=O)N[C@@H](CCCNC(=N)N)C(=O)O)[C@@H](C)O	7970
AAFFGWEWGPDGEPG	5670
AAGFKGEQGPKGEPG	2910
AAGFKGEQGPKGGPG	12100
AAGFPGEQGPKGEPG	> 50000
AIGFKGEQGPKGGVG	23300
EVKYCTFSKDRSKPIPGMTL	> 50000
VSSFQDILLRMSKMQ	> 50000
YSIEVLLVLDDSVVRFHGKE	> 50000

What follows are compounds tested against T2, recombinant HLA-DR402 (HLA-DRA1*01:01, HLA-DRB1*04:02) (Homo sapiens, UniProt P01903+P01911, A100E/A169T/F76Y/K127E/L162R/M171V/N62H/P40V/Q125Y/Q99D/R42H/S133A/S149N/S66Y/V209L/W38E) (assay: biochemical). Settings: not given.
T2 construct: poly-histidine (C); made in house; host or cells: High Five (Hi5) insect cells, baculovirus (pAcGP67a)
Type: binding

Compound	IC50 [nM]
AACRKHGSSIGWEEG	132
AAEHVWPSLVGWEEG	25.6
AAGRSHRTHEGWEEG	10
AALWRHPGHVGWEEG	74.9
AAPRRHANHLGWEEG	130
AAQVDWPTLPMWEEG	63.6
AAVREKCDHVGWEEG	75.5
AAVTEEKSHLGWEEG	58.3
AAVTERPINLGWEEG	51.3
AAVTNWGCEVGWEEG	136
AQKIVEWDSRKSKYG	62
ASKIAFKIVSQEPAG	27.8

Same assay, conditions: HLA-DR402; estimated from two-point fluorescence polarization competition; Fig5F; read-out: Estimated IC50

Compound	IC50 [nM]
CC[C@H](C)[C@H](NC(=O)[C@@H]1CCCN1C(=O)[C@H](Cc1ccc(O)cc1)NC(=O)[C@H](CCCCN)NC(=O)[C@H](CCSC)NC(=O)[C@H](C)NC(=O)[C@H](CCSC)NC(=O)[C@H](CCSC)NC(=O)[C@H](Cc1c[nH]c2ccccc12)NC(=O)[C@H](CCCCN)NC(=O)[C@H](CCSC)NC(=O)[C@H](CCCNC(=N)N)NC(=O)[C@H](CC(C)C)NC(=O)[C@H](C)NC(=O)[C@@H]1CCCN1)C(=O)O	1310
CC[C@H](C)[C@H](NC(=O)[C@H](CCC(=O)O)NC(=O)[C@@H](N)[C@@H](C)O)C(=O)N[C@H](C(=O)N[C@@H](CCCNC(=N)N)C(=O)N[C@@H](CCSC)C(=O)N[C@@H](CCSC)C(=O)N[C@@H](CCC(=O)O)C(=O)N[C@@H](CO)C(=O)N[C@@H](C)C(=O)N[C@@H](CCCNC(=N)N)C(=O)N1CCC[C@H]1C(=O)N[C@@H](CCC(=O)O)C(=O)N[C@@H](CC(=O)O)C(=O)N[C@H](C(=O)O)C(C)C)[C@@H](C)CC	83.1
CC[C@H](C)[C@H](NC(=O)[C@H](C)NC(=O)[C@@H](NC(=O)[C@H](C)NC(=O)[C@H](CCCNC(=N)N)NC(=O)[C@H](CCCNC(=N)N)NC(=O)CNC(=O)[C@@H](NC(=O)[C@H](CCSC)NC(=O)[C@@H](NC(=O)[C@H](Cc1ccccc1)NC(=O)[C@H](CCC(=O)O)NC(=O)[C@H](CCC(=O)O)NC(=O)[C@@H](N)Cc1ccc(O)cc1)[C@@H](C)O)C(C)C)[C@@H](C)O)C(=O)N[C@@H](CC(C)C)C(=O)O	4570
CC[C@H](C)[C@H](NC(=O)CNC(=O)[C@H](CCCNC(=N)N)NC(=O)[C@H](CCCCN)NC(=O)[C@@H](NC(=O)[C@H](CCSC)NC(=O)[C@H](CCCNC(=N)N)NC(=O)[C@@H](NC(=O)[C@H](CC(C)C)NC(=O)[C@H](CCC(=O)O)NC(=O)[C@H](CCSC)NC(=O)[C@@H](NC(=O)[C@H](CCSC)NC(=O)[C@@H](N)[C@@H](C)O)C(C)C)C(C)C)[C@@H](C)CC)C(=O)N[C@@H](CC(N)=O)C(=O)O [TMVMELVRMIKRGIN]	870
AAACRKRTWLGWEEG	< 10
AAANRRPSLLGWEEG	< 10
AALDAHRDHMAWEEG	< 10
AALTGKLGHRGWEEG	< 10
AATERRPTLMAWEEG	< 10
AAVSDRLPLRGWEEG	< 10
ASKMRMATPLLMQAG	< 10
LGFVFTLTVPSERGL	409
NRMVLASTTAKAMEQ	< 10

Same assay, conditions: read-out: IC50

Compound	IC50 [nM]
AAACRKRTWLGWEEG	< 10
AAANRRPSLLGWEEG	< 10
AALDAHRDHMAWEEG	< 10
AALTGKLGHRGWEEG	< 10
AATERRPTLMAWEEG	< 10
AAVSDRLPLRGWEEG	< 10
NRMVLASTTAKAMEQ	< 10
